US20250179103A1, “6-OXODECAHYDROPYRROLO[1,2-A][1,5]DIAZOCINE AND 6-OXODECAHYDRO-4H-PYRROLO[2,1-D][1,5]THIAZOCINE DERIVATIVES AS STAT3 AND STAT6 MODULATORS FOR THE TREATMENT OF CANCER AND INFLAMMATORY CONDITIONS” (Recludix Pharma, Inc., priority 2022, published 2025)
pIC50: −log10 of the molar value.

Legend:
[1] = test system: pY705-STAT3 in Peripheral Blood Mononuclear Cells (PBMC); test: MSD-pSTAT-PBMC Assay (pSTAT3, IL-6 stimulated); format: cell-based, Human; settings: Homo sapiens, compound 3 hrs, then 10 ng/mL IL-6 for 10 min
Outline: (§1)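 Human PBMCs were preincubated 3 h with compound, then stimulated 10 min with 10 ng/mL IL-6 (pY705-STAT3) or 1 ng/mL IL-4 (pY641-STAT6). Lysates were read by MSD sandwich immunoassay, capturing total STAT and detecting phospho-STAT. Signal was unstimulated-subtracted and DMSO-normalised, with variable-slope IC50 binned A–D.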

[2] = test system: pY641-STAT6 in Peripheral Blood Mononuclear Cells (PBMC); test: MSD-pSTAT-PBMC Assay (pSTAT6, IL-4 stimulated); format: cell-based, Human; settings: Homo sapiens, compound 3 hrs, then 1 ng/mL IL-4 for 10 min
Outline: as §1

| Compound | pIC50 [1] | pIC50 [2] |
| --- | --- | --- |
| COC(=O)[C@@H]1CCCN1C(=O)OCOP(=O)(OCOC(=O)N1CCC[C@H]1C(=O)OC)C(F)(F)c1ccc2sc(C(=O)N[C@H]3CN(C(C)=O)CC[C@H]4CC[C@@H](C(=O)N(C)c5ccccc5)N4C3=O)cc2c1 [Compound 288, O′1,O1-(((((2-(((5S, 8S,10aR)-3-acetyl-8-(methyl (phenyl)carbamoyl)-6-oxodecahydro-pyrrolo[1,2-a][1,5]diazocin-5-yl)carbamoyl)benzo[b]thiophen-5-yl)difluoro-methyl)phos-phoryl)bis(oxy))bis (methylene)) 2,2′-dimethyl (2S,2′S)-bis (pyrrolidine-1,2-dicarboxylate)] | < 5.52 | < 5.52 |
| CC(=O)N1CC[C@H]2CC[C@@H](C(=O)N(C)c3ccccc3)N2C(=O)[C@@H](NC(=O)c2cc3cc(C(F)(F)P(=O)(OCCSC(=O)C(C)(C)C)Oc4ccccc4)ccc3s2)C1 (stereo partly drawn) [Compound 289, S-(2-((((2-(((5S,8S, 10aR)-3-acetyl-8-(methyl (phenyl)carbamoyl)-6-oxodecahydro-pyrrolo[1,2-a][1,5]diazocin-5-yl)carbamoyl)benzo[b]thiophen-5-yl)difluoro-methyl) (phenoxy)phosphoryl)oxy)ethyl)2,2-dimethylpro-panethioate] | < 5.52 | < 5.52 |
| CC(=O)N1CC[C@H]2CC[C@@H](C(=O)N(C)c3ccc4nnccc4c3)N2C(=O)[C@@H](NC(=O)c2cc3cc(C(F)(F)P(=O)(OCOC(=O)C(C)(C)C)OCOC(=O)C(C)(C)C)ccc3s2)C1 [Compound 290, ((((2-(((5S,8S, 10aR)-3-acetyl-8-(cinnolin-6-yl(methyl)carbamoyl)-6-oxodecahydro-pyrrolo[1,2-a][1,5]diazocin-5-yl)carbamoyl)benzo[b]thiophen-5-yl)difluoro-methyl)phos-phoryl)bis(oxy)) bis(methylene) bis(2,2-dimethylpro-panoate)] | 5.52 to 6.00 | 6.00 to 7.00 |
| CC(=O)N1CC[C@H]2CC[C@@H](C(=O)N(C)c3ccccc3)N2C(=O)[C@@H](NC(=O)c2cc3cc(C(F)(F)P(=O)(OCCSC(=O)C(C)(C)C)OCCSC(=O)C(C)(C)C)ccc3s2)C1 [Compound 291, S,S′-(((((2-(((5S,8S, 10aR)-3-acetyl-8-(methyl (phenyl)carbamoyl)-6-oxodecahydro-pyrrolo[1,2-a][1,5]diazocin-5-yl)carbamoyl)benzo[b]thiophen-5-yl)difluoro-methyl)phos-phoryl)bis(oxy))bis(ethane-2,1-diyl)) bis(2,2-dimethylpro-panethioate)] | < 5.52 | < 5.52 |
| CCCN(CCC)C(=O)OCOP(=O)(OCOC(=O)N(CCC)CCC)C(F)(F)c1ccc2sc(C(=O)N[C@@H]3CN(C(C)=O)CC[C@@H]4CC[C@H](C(=O)N(C)c5ccccc5)N4C3=O)cc2c1 [Compound 292, ((((2-(((5R,8R, 10aS)-3-acetyl-8-(methyl (phenyl)carbamoyl)-6-oxodecahydro-pyrrolo[1,2-a][1,5]diazocin-5-yl)carbamoyl)benzo[b]thiophen-5-yl)difluoro-methyl)phos-phoryl)bis(oxy)) bis(methylene) bis(dipropyl-carbamate)] | < 5.52 | < 5.52 |
| CCCOC(=O)OC(C)OP(=O)(OC(C)OC(=O)OCCC)C(F)(F)c1ccc2sc(C(=O)N[C@H]3CN(C(C)=O)CC[C@H]4CC[C@@H](C(=O)N(C)c5ccccc5)N4C3=O)cc2c1 (stereo partly drawn) [Compound 293, ((((2-(((5S,8S, 10aR)-3-acetyl-8-(methyl (phenyl)carbamoyl)-6-oxodecahydro-pyrrolo[1,2-a][1,5]diazocin-5-yl)carbamoyl)benzo[b]thiophen-5-yl)difluoro-methyl)phos-phoryl)bis(oxy)) bis(ethane-1,1-diyl) dipropyl bis(carbonate)] | < 5.52 | < 5.52 |
| CC(=O)N1CC[C@H]2CC[C@@H](C(=O)Nc3ccc4nnccc4c3)N2C(=O)[C@@H](NC(=O)c2cc3cc(C(F)(F)P(=O)(OCOC(=O)C(C)(C)C)OCOC(=O)C(C)(C)C)ccc3s2)C1 [Compound 294, ((((2-(((5S,8S, 10aR)-3-acetyl-8-(cinnolin-6-ylcarbamoyl)-6-oxodecahydro-pyrrolo[1,2-a][1,5]diazocin-5-yl)carbamoyl)benzo[b]thiophen-5-yl)difluoro-methyl)phos-phoryl)bis(oxy)) bis(methylene) bis(2,2-dimethylpro-panoate)] | 6.00 to 7.00 | 6.00 to 7.00 |
| CC(=O)N1CC[C@H]2CC[C@@H](C(=O)N(C)c3ccccc3)N2C(=O)[C@@H](NC(=O)c2cc3cc(C(F)P(=O)(OCOC(=O)C(C)(C)C)OCOC(=O)C(C)(C)C)ccc3s2)C1 (stereo partly drawn) [Compound 295, ((((2-(((5S,8S, 10aR)-3-acetyl-8-(methyl (phenyl)carbamoyl)-6-oxodecahydro-pyrrolo[1,2-a][1,5]diazocin-5-yl)carbamoyl)benzo[b]thiophen-5-yl)fluoro-methyl)phos-phoryl)bis(oxy))bis (methylene) bis(2,2-dimethylpro-panoate)] | 6.00 to 7.00 | 6.00 to 7.00 |
| CC(=O)N1CC[C@H]2CC[C@@H](C(=O)N(C)c3ccccc3)N2C(=O)[C@@H](NC(=O)c2cc3cc(C(F)(F)P(=O)(OCOC(=O)C(C)(C)C)OCOC(=O)C(C)(C)C)ccc3s2)C1 [Compound 296, ((((2-(((5S,8S, 10aR)-3-acetyl-8-(methyl (phenyl)carbamoyl)-6-oxodecahydro-pyrrolo[1,2-a][1,5]diazocin-5-yl)carbamoyl)benzo[b]thiophen-5-yl)difluoro-methyl)phos-phoryl)bis(oxy)) bis(methylene) bis(2,2-dimethylpro-panoate)] | 6.00 to 7.00 | ≥ 7.00 |
| CC(=O)N1CC[C@H]2CC[C@@H](C(=O)N(C)c3ccccc3)N2C(=O)[C@@H](NC(=O)c2cc3cc(C(F)(F)P(=O)(OCOC(=O)C(C)(C)C)OCOC(=O)C(C)(C)C)ccc3[nH]2)C1 [Compound 300, ((((2-(((5S, 8S,10aR)-3-acetyl-8-(methyl (phenyl)carbamoyl)-6-oxodecahydro-pyrrolo[1,2-a][1,5]diazocin-5-yl)carbamoyl)-1H-indol-5-yl)difluoro-methyl)phos-phoryl)bis(oxy)) bis(methylene) bis(2,2-dimethylpro-panoate)] | 6.00 to 7.00 | 6.00 to 7.00 |
| CC(=O)N1CC[C@H]2CC[C@@H](C(=O)N3C[C@H](O)[C@@H](n4ccnn4)C3)N2C(=O)[C@@H](NC(=O)c2ccc3ccc(C(F)(F)P(=O)(OCCSC(=O)CC(C)C)OCCSC(=O)CC(C)C)cc3c2)C1 [Compound 305, S,S′-(((((7-(((5S,8S, 10aR)-3-acetyl-8-((3S,4S)-3-hydroxy-4-(1H-1,2,3-triazol-1-yl)pyrrolidine-1-carbonyl)-6-oxodecahydro-pyrrolo[1,2-a][1,5]diazocin-5-yl)carbamoyl)naphthalen-2-yl)difluoro-methyl)phos-phoryl)bis(oxy))bis(ethane-2,1-diyl)) bis(3-methylbutane-thioate)] | 5.52 to 6.00 | < 5.52 |
| CC(=O)N1CC[C@H]2CC[C@@H](C(=O)N(C)c3ccccc3)N2C(=O)[C@@H](NC(=O)c2cc3cc(C(=O)P(=O)(OCOC(=O)C(C)(C)C)OCOC(=O)C(C)(C)C)ccc3s2)C1 [Compound 307, (((2-(((5S, 8S,10aR)-3-acetyl-8-(methyl (phenyl)carbamoyl)-6-oxo-decahydro-pyrrolo[1,2-a][1,5]diazocin-5-yl)carbamoyl)benzo[b]thiophene-5-carbonyl)phosphoryl)bis(oxy))bis (methylene) bis(2,2-dimethylpro-panoate)] | < 5.52 | < 5.52 |
| CC(=O)N1CC[C@H]2CC[C@@H](C(=O)Nc3ccc(-c4ccccc4)cc3)N2C(=O)[C@@H](NC(=O)c2cc3cc(C(F)(F)P(=O)(OCOC(=O)C(C)(C)C)OCOC(=O)C(C)(C)C)ccc3[nH]2)C1 [Compound 308, ((((2-(((5S, 8S,10aR)-8-([1,1′-biphenyl]-4-ylcarbamoyl)-3-acetyl-6-oxodecahydro-pyrrolo[1,2-a][1,5]diazocin-5-yl)carbamoyl)-1H-indol-5-yl)difluoro-methyl)phos-phoryl)bis(oxy)) bis(methylene) bis(2,2-dimethylpro-panoate)] | 6.00 to 7.00 | 6.00 to 7.00 |
| CC(=O)N1CC[C@H]2CC[C@@H](C(=O)Nc3cnc(S(C)(=O)=O)nc3)N2C(=O)[C@@H](NC(=O)c2cc3cc(C(F)(F)P(=O)(OCOC(=O)C(C)(C)C)OCOC(=O)C(C)(C)C)ccc3s2)C1 [Compound 309, ((((2-(((5S, 8S,10aR)-3-acetyl-8-((2-(methyl-sulfonyl)pyrimidin-5-yl)carbamoyl)-6-oxodecahydro-pyrrolo[1,2-a][1,5]diazocin-5-yl)carbamoyl)benzo[b]thiophen-5-yl)difluoro-methyl)phos-phoryl)bis(oxy)) bis(methylene) bis(2,2-dimethylpro-panoate)] | < 5.52 | 5.52 to 6.00 |
| CC(=O)N1CC[C@H]2CC[C@@H](C(=O)N(C)c3ccc(-c4ccccc4)cc3)N2C(=O)[C@@H](NC(=O)c2cc3cc(C(F)(F)P(=O)(OCOC(=O)C(C)(C)C)OCOC(=O)C(C)(C)C)ccc3s2)C1 [Compound 310, ((((2-(((5S, 8S,10aR)-8-([1,1′-biphenyl]-4-yl(methyl)carbamoyl)-3-acetyl-6-oxodecahydro-pyrrolo[1,2-a][1,5]diazocin-5-yl)carbamoyl)benzo[b]thiophen-5-yl)difluoro-methyl)phos-phoryl)bis(oxy)) bis(methylene) bis(2,2-dimethylpro-panoate)] | 6.00 to 7.00 | 6.00 to 7.00 |
